Laboratory results as given in patent publication US8143274B2, “1-(2H)-isoquinolone derivative” (Chugai Seiyaku Kabushiki Kaisha, priority 2004, dated 2012).

Columns and labels:
[1] = test system: human colon cancer cell line HCT116 transplanted subcutaneously; test: Measurement of antitumor effect in HCT116 tumor-bearing nude mouse; assay type: in vivo, BALB/c nude mouse; details: oral, administered twice (initiation date and 3 days after)
Method: [Measurement of Antitumor Effect]
A representative example of the compound group of the present invention was measured in terms of antitumor effect.
Such antitumor effect was examined, using a tumor-bearing mouse produced by transplanting the human colon cancer cell line HCT116 obtained from American Type Culture Collection (Virginia, U.S.A) into the inguinal subcutis of a BALB/c nude mouse purchased from Charles River Laboratories Japan, Inc. The purchased nude mouse was quarantined for 1 week. Thereafter, approximately 5×10^6 HCT116 cells were transplanted subcutaneously. When the size of a tumor thereof became about 200 mm^3, the mouse was subjected to the present experiment.
Each compound was dissolved or suspended in a solution to be administered, and 0.5 ml of the solution was orally administered. Such administration was carried out twice in total, that is, on the initiation date of administration and 3 days after the administration. The antitumor effect was calculated as a tumor growth inhibition by comparing the solution administration group with a control group in terms of tumor growth. Tumor growth inhibition(TGI)=(1−the tumor growth amount of agent-treated group/the tumor growth amount of control group)×100(%)

[2] = test system: human colon cancer cell line HCT116; test: Measurement of cell growth inhibitory activity (Cell Counting Kit-8); assay type: cell-based; details: HCT-116, 96 h, HCT116, 2,000 cells/well, cultured 4 days
Method: [Measurement of Cell Growth Inhibitory Activity]
Several representative examples of the compound group of the present invention were measured in terms of cell growth inhibitory activity.
Cancer cell growth inhibitory activity was measured using Cell Counting Kit-8 manufactured by Dojindo Laboratories. The human colon cancer cell line HCT116 obtained from American Type Culture Collection (Virginia, U.S.A) was inoculated in a 96-well culture plate at a concentration of 2,000 cells/well. Thereafter, a certain concentration of compound was added thereto, and the obtained mixture was then cultured at 37° C. in 5% CO2 for 4 days. On the 4th day of the culture, a Cell Counting Kit-8 solution was added to the culture product, and absorbance (measurement wavelength: 450 nm; reference wavelength: 615 nm) was measured in accordance with protocols included with the kit. Thereafter, 50% growth inhibitory concentration (IC50) was calculated.

| Structure (SMILES) | TGI (%) on day 7 ([1]; dose 12.5 mg/kg) [%] | IC50 [2] [µM] | TGI (%) on day 7 ([1]; dose 50 mg/kg) [%] | TGI (%) on day 7 ([1]; dose 200 mg/kg) [%] |
| --- | --- | --- | --- | --- |
| O=c1[nH]c(-c2ccccc2)cc2ccc(N3CCOCC3)cc12 [Compound 8, 7-morpholin-4-yl-3-phenyl-2H-isoquinolin-1-one] | 96 | 0.028 |  |  |
| O=c1[nH]c(-c2ccccc2C(F)(F)F)cc2ccc(N3CCCCC3)cc12 [Compound 10, 7-piperidin-1-yl-3-(2-trifluoromethylphenyl)-2H-isoquinolin-1-one] |  | 0.097 | 91 |  |
| O=c1[nH]c(-c2ccccc2)cc2ccc(N3CCC(CO)CC3)cc12 [Compound 21, 7-(4-hydroxymethylpiperidin-1-yl)-3-phenyl-2H-isoquinolin-1-one] |  | 0.02 |  |  |
| O=c1[nH]c(-c2ccccc2C(F)(F)F)cc2ccc(N3CCC(O)CC3)cc12 [Compound 29, 7-(4-hydroxypiperidin-1-yl)-3-(2-trifluoromethylphenyl)-2H-isoquinolin-1-one] |  | 0.052 |  |  |
| O=c1[nH]c(-c2ccccc2)cc2ccc(N3CCC(O)C3)cc12 (stereo not drawn) [Compound 36, 7-(3-hydroxypyrrolidin-1-yl)-3-phenyl-2H-isoquinolin-1-one] |  | 0.018 |  |  |
| CCOC(=O)Nc1ccc2cc(-c3ccccc3C(F)(F)F)[nH]c(=O)c2c1 [Compound 61, ethyl[1-oxo-3-(2-trifluoromethylphenyl)-1,2-dihydroisoquinolin-7-yl]carbamate] |  | 0.021 |  | 73 |
